# Laboratory results: patent publication US8299267B2, “(3-hydroxy-4-amino-butan-2-yl) -3- (2-thiazol-2-yl-pyrrolidine-1-carbonyl) benzamide derivatives and related compounds as beta-secretase inhibitors for treating” (CoMentis, Inc., priority 2007, dated 2012)
# Experiments:
# memapsin 2 = memapsin 2 (Homo sapiens, UniProt P56817); assay: Inhibition of memapsin 2 beta-secretase activity toward fluorogenic substrate FS-2; type: biochemical; conditions: memapsin 2, pH 4, 37° C., 20 minutes pre-incubation, substrate FS-2; read-out: M2Ki
# Outline: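 Memapsin 2 was preincubated with compound 20 min at pH 4, 37 °C, then reacted with fluorogenic substrate FS-2 (MCA-SEVNLDAEFK-DNP), an APP-derived Swedish-variant peptide. Inhibition was followed kinetically by fluorescence.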
# [1] = system: Aβ production in Chinese hamster ovary cells that over-express human APP695 with the London and Swedish mutations; assay: Cellular Aβ IC50 determination (Aβ40 sandwich ELISA); type: cell-based; conditions: Cricetulus griseus; Aβ40 in CHO cells over-expressing human APP695, 24 h incubation
# Outline: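 APP695 (London/Swedish)-overexpressing CHO cells were treated 48 h after seeding with serial dilutions from near 4 μM top concentration (0.4% DMSO) for 24 h at 37 °C. Secreted Aβ40 was quantified by sandwich ELISA relative to controls and fit to a 4-parameter IC50 model.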
# memapsin 2, sequence (P56817 46-501): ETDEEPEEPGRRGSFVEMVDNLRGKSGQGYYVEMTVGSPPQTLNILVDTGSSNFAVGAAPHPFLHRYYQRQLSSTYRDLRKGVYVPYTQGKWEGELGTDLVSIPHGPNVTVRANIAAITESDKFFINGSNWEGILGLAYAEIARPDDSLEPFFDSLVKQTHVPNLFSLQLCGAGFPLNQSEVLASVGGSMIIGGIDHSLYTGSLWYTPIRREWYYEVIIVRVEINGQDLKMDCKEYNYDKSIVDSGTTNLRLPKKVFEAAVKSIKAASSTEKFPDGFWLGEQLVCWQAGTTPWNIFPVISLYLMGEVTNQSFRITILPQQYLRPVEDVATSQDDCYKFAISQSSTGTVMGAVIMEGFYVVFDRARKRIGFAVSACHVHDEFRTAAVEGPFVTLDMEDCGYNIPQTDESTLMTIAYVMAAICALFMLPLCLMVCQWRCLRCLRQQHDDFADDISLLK
Ki (memapsin 2),IC50 [1],SMILES
< 0.1 µM,< 0.3 µM,"Cc1coc([C@H]2CCCN2C(=O)c2cc(C(=O)N[C@@H](Cc3ccccc3)[C@H](O)CNCc3cccc(C(F)(F)F)c3)ccn2)n1 [Compound 94, N-((2S,3R)-3-hydroxy-1-phenyl-4-(3-(trifluoromethyl)benzylamino)butan-2-yl)-2-((R)-2-(4-methyloxazol-2-yl)pyrrolidine-1-carbonyl)isonicotinamide]"
< 0.1 µM,< 0.3 µM,"Cc1coc([C@H]2CCCN2C(=O)c2cccc(C(=O)N[C@@H](Cc3ccccc3)[C@H](O)CNCc3cncc(C(F)(F)F)c3)c2)n1 [Compound 103, N-((2S,3R)-3-hydroxy-1-phenyl-4-((5-(trifluoromethyl)pyridin-3-yl)methylamino)butan-2-yl)-3-((R)-2-(4-methyloxazol-2-yl)pyrrolidine-1-carbonyl)benzamide]"
< 0.1 µM,< 0.3 µM,"Cc1coc([C@H]2CCCN2C(=O)c2cccc(C(=O)N[C@@H](Cc3ccccc3)[C@H](O)CNCc3cncc(C(C)C)c3)c2)n1 [Compound 34, N-((2S,3R)-3-hydroxy-4-((5-isopropylpyridin-3-yl)methylamino)-1-phenylbutan-2-yl)-3-((R)-2-(4-methyloxazol-2-yl)pyrrolidine-1-carbonyl)benzamide]"
< 0.1 µM,< 0.3 µM,"Cc1csc([C@H]2CCCN2C(=O)c2cc(C(=O)N[C@@H](Cc3ccccc3)[C@H](O)CNCc3cccc(C(F)(F)F)c3)ccn2)n1 [Compound 64, N-((2S,3R)-3-hydroxy-1-phenyl-4-(3-(trifluoromethyl)benzylamino)butan-2-yl)-2-((R)-2-(4-methylthiazol-2-yl)pyrrolidine-1-carbonyl)isonicotinamide]"
< 0.1 µM,< 0.3 µM,"Cc1csc([C@H]2CCCN2C(=O)c2cc(CF)cc(C(=O)N[C@@H](Cc3ccccc3)[C@H](O)CNCc3cncc(C(C)(C)F)c3)c2)n1 [Compound 50, 3-(fluoromethyl)-N-((2S,3R)-4-((5-(2-fluoropropan-2-yl)pyridin-3-yl)methylamino)-3-hydroxy-1-phenylbutan-2-yl)-5-((R)-2-(4-methylthiazol-2-yl)pyrrolidine-1-carbonyl)benzamide]"
< 0.1 µM,< 0.3 µM,"Cc1cc(C(=O)N[C@@H](Cc2ccccc2)[C@H](O)CNCc2cccc(C(C)(F)F)c2)cc(C(=O)N2CCC[C@@H]2c2nc(C)co2)c1 [Compound 104, N-((2S,3R)-4-(3-(1,1-difluoroethyl)benzylamino)-3-hydroxy-1-phenylbutan-2-yl)-3-methyl-5-((R)-2-(4-methyloxazol-2-yl)pyrrolidine-1-carbonyl)benzamide]"
0.101 to 0.2 µM,< 0.3 µM,"Cc1csc([C@H]2CCCN2C(=O)c2cncc(C(=O)N[C@@H](Cc3ccccc3)[C@H](O)CNCc3cccc(C(C)(C)C)c3)c2)n1 [Compound 32, N-((2S,3R)-4-(3-tert-butylbenzylamino)-3-hydroxy-1-phenylbutan-2-yl)-5-((R)-2-(4-methylthiazol-2-yl)pyrrolidine-1-carbonyl)nicotinamide]"
< 0.1 µM,< 0.3 µM,"Cc1cc(C(=O)N[C@@H](Cc2ccccc2)[C@H](O)CNCc2cncc(C(C)C)c2)cc(C(=O)N2CCC[C@@H]2c2nc(C)cs2)c1 [Compound 52, N-((2S,3R)-3-hydroxy-4-((5-isopropylpyridin-3-yl)methylamino)-1-phenylbutan-2-yl)-3-methyl-5-((R)-2-(4-methylthiazol-2-yl)pyrrolidine-1-carbonyl)benzamide]"
< 0.1 µM,< 0.3 µM,"Cc1csc([C@H]2CCCN2C(=O)c2cc(C(=O)N[C@@H](Cc3ccccc3)[C@H](O)CNCc3cc(Cl)cc(Cl)c3)cc(N(C)C)c2)n1 [Compound 48, N-((2S,3R)-4-(3,5-dichlorobenzylamino)-3-hydroxy-1-phenylbutan-2-yl)-3-(dimethylamino)-5-((R)-2-(4-methylthiazol-2-yl)pyrrolidine-1-carbonyl)benzamide]"
< 0.1 µM,< 0.3 µM,"Cc1coc([C@H]2CCCN2C(=O)c2cc(C(=O)N[C@@H](Cc3ccccc3)[C@H](O)CNCc3cncc(C(C)C)c3)cc(-c3ncco3)c2)n1 [Compound 86, N-((2S,3R)-3-hydroxy-4-((5-isopropylpyridin-3-yl)methylamino)-1-phenylbutan-2-yl)-3-((R)-2-(4-methyloxazol-2-yl)pyrrolidine-1-carbonyl)-5-(oxazol-2-yl)benzamide]"
< 0.1 µM,< 0.3 µM,"COc1cccc(CNC[C@@H](O)[C@H](Cc2ccccc2)NC(=O)c2cc(OC)cc(C(=O)N3CCC[C@@H]3c3nc(C)cs3)c2)c1 [Compound 11, N-((2S,3R)-3-hydroxy-4-(3-methoxybenzylamino)-1-phenylbutan-2-yl)-3-methoxy-5-((R)-2-(4-methylthiazol-2-yl)pyrrolidine-1-carbonyl)benzamide]"
< 0.1 µM,< 0.3 µM,"Cc1csc([C@H]2CCCN2C(=O)c2cccc(C(=O)N[C@@H](Cc3ccccc3)[C@H](O)CNCc3cc(O)cc(C(C)C)c3)c2)n1 [Compound 24, N-((2S,3R)-3-hydroxy-4-(3-hydroxy-5-isopropylbenzylamino)-1-phenylbutan-2-yl)-3-((R)-2-(4-methylthiazol-2-yl)pyrrolidine-1-carbonyl)benzamide]"
< 0.1 µM,< 0.3 µM,"Cc1csc([C@H]2CCCN2C(=O)c2cncc(C(=O)N[C@@H](Cc3ccccc3)[C@H](O)CNCc3cncc(C(C)(C)F)c3)c2)n1 [Compound 44, N-((2S,3R)-4-((5-(2-fluoropropan-2-yl)pyridin-3-yl)methylamino)-3-hydroxy-1-phenylbutan-2-yl)-5-((R)-2-(4-methylthiazol-2-yl)pyrrolidine-1-carbonyl)nicotinamide]"
< 0.1 µM,< 0.3 µM,"CNc1cc(CNC[C@@H](O)[C@H](Cc2ccccc2)NC(=O)c2cccc(C(=O)N3CCC[C@@H]3c3nc(C)cs3)c2)cc(C(F)(F)F)c1 [Compound 85, N-((2S,3R)-3-hydroxy-4-(3-(methylamino)-5-(trifluoromethyl)benzylamino)-1-phenylbutan-2-yl)-3-((R)-2-(4-methylthiazol-2-yl)pyrrolidine-1-carbonyl)benzamide]"
< 0.1 µM,< 0.3 µM,"Cc1coc([C@H]2CCCN2C(=O)c2cc(CF)cc(C(=O)N[C@@H](Cc3ccccc3)[C@H](O)CNCc3cncc(C(C)C)c3)c2)n1 [Compound 77, 3-(fluoromethyl)-N-((2S,3R)-3-hydroxy-4-((5-isopropylpyridin-3-yl)methylamino)-1-phenylbutan-2-yl)-5-((R)-2-(4-methyloxazol-2-yl)pyrrolidine-1-carbonyl)benzamide]"
< 0.1 µM,< 0.3 µM,"COC[C@H]1CCCN1C(=O)c1cc(C)cc(C(=O)N[C@@H](Cc2ccccc2)[C@H](O)CNCc2cncc(C(C)C)c2)c1 [Compound 23, N-((2S,3R)-3-hydroxy-4-((5-isopropylpyridin-3-yl)methylamino)-1-phenylbutan-2-yl)-3-((R)-2-(methoxymethyl)pyrrolidine-1-carbonyl)-5-methylbenzamide]"
< 0.1 µM,> 0.501 µM,"COc1cccc(CNC[C@@H](O)[C@H](Cc2ccccc2)NC(=O)c2cccc(C(=O)N3CCCC[C@@H]3c3nc(C)cs3)c2)c1 [Compound 5, N-((2S,3R)-3-hydroxy-4-(3-methoxybenzylamino)-1-phenylbutan-2-yl)-3-((R)-2-(4-methylthiazol-2-yl)piperidine-1-carbonyl)benzamide]"
